Experimental data as given in ChEMBL document CHEMBL1201862, “PubChem BioAssay data set” (2004).
Activity calls are given as the source filed them.

Columns and labels:
HT-1080 = assay: HT1080 cell viability loss – fluorescence readout (AID 620); type: functional, cell-based; conditions: Homo sapiens
[1] = target: Luciferin 4-monooxygenase (Photinus pyralis, UniProt P08659); assay: Counter Screen for Luciferase-based Assay Positives. [Related pubchem assays: 620, 618, 411 ]
[2] = target: T1, Calpain-2 catalytic subunit (Sus scrofa, UniProt P43367); assay: m-calpain protease blockers, concentration series – biochemical, fluorogenic peptide substrate, dose response (AID 1420); type: functional
T1 sequence (P43367 whole entry): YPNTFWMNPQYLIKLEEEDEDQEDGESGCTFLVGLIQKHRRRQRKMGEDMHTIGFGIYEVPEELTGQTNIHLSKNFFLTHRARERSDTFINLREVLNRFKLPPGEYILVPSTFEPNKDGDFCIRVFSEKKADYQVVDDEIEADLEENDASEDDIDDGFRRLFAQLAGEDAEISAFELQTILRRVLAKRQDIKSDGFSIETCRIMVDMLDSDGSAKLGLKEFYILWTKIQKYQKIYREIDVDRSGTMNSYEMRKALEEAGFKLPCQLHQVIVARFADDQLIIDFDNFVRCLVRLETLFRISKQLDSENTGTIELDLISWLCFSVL

[3] = blockade of melanocortin 4 receptor signaling – cell-based, plate reader, cherry pick, counter-screen for LGR2 antagonist project, dose response (AID 743444); type: functional;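 further: transfected HEK 293 cells stimulated with alpha-MSH peptide; potency of inhibitors of the alpha-MSH evoked signal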
[4] = viability loss in HEK293 cells – cell-based, plate reader, cherry-picked samples, cytotoxicity control, dose response (AID 743446); type: functional
[5] = blockers of bursicon-stimulated LGR2 cAMP reporter – cell-based, HEK293, CRE-luciferase reporter, cherry pick, set 2, dose response (AID 743343); type: functional;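 further: transfected cells were stimulated with diluted bursicon conditioned medium after compound addition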
[6] = toxicity toward HepG2 liver cells – cell-based, plate reader, cherry-pick, antagonist series, cytotoxicity control, dose response (AID 743416); type: functional
[7] = A549 cell cytotoxicity, dose response, cytotoxicity control, plate reader, cherry-pick, antagonist series (AID 743412); type: functional, cell-based
[8] = target: T2, Sentrin-specific protease 6 (Homo sapiens, UniProt Q9GZR1); type: functional;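 further: Luminescence-based dose-response confirmatory assay of SENP6 inhibition, following up an ultra-high-throughput screen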
T2 sequence (Q9GZR1 whole entry): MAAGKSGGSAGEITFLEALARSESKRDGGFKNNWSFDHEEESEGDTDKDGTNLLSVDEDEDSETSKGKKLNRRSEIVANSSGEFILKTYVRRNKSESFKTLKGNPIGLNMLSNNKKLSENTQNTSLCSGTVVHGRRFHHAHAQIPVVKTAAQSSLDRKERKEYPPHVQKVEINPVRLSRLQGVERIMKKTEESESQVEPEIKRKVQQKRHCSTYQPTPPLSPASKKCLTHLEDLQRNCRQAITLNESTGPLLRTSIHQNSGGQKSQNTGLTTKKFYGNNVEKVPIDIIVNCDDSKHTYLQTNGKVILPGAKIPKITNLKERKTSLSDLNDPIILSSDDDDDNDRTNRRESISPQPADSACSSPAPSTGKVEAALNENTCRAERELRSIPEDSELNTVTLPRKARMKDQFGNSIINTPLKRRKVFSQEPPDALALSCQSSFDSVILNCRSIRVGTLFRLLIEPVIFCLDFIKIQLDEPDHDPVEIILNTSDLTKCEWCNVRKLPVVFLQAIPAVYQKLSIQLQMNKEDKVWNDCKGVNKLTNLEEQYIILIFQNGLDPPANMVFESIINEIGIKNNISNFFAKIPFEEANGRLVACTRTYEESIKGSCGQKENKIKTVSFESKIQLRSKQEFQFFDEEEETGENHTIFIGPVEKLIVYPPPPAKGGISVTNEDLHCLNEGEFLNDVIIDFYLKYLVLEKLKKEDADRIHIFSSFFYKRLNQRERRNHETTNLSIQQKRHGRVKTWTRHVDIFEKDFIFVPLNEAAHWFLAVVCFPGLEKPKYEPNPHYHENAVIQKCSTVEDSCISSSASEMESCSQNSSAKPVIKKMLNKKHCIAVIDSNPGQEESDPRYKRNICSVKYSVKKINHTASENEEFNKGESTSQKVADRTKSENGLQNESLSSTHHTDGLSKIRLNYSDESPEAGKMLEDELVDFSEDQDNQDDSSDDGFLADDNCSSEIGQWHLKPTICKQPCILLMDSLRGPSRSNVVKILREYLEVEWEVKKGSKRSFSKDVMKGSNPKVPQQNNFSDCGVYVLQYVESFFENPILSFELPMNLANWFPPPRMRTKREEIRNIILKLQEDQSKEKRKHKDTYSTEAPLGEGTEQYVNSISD

[9] = target: T3, Sentrin-specific protease 7 (Homo sapiens, UniProt Q9BQF6); type: functional;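 further: Luminescence-based dose-response confirmation of ultra-high-throughput screening hits, measuring inhibition of SENP7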
T3 sequence (Q9BQF6 whole entry): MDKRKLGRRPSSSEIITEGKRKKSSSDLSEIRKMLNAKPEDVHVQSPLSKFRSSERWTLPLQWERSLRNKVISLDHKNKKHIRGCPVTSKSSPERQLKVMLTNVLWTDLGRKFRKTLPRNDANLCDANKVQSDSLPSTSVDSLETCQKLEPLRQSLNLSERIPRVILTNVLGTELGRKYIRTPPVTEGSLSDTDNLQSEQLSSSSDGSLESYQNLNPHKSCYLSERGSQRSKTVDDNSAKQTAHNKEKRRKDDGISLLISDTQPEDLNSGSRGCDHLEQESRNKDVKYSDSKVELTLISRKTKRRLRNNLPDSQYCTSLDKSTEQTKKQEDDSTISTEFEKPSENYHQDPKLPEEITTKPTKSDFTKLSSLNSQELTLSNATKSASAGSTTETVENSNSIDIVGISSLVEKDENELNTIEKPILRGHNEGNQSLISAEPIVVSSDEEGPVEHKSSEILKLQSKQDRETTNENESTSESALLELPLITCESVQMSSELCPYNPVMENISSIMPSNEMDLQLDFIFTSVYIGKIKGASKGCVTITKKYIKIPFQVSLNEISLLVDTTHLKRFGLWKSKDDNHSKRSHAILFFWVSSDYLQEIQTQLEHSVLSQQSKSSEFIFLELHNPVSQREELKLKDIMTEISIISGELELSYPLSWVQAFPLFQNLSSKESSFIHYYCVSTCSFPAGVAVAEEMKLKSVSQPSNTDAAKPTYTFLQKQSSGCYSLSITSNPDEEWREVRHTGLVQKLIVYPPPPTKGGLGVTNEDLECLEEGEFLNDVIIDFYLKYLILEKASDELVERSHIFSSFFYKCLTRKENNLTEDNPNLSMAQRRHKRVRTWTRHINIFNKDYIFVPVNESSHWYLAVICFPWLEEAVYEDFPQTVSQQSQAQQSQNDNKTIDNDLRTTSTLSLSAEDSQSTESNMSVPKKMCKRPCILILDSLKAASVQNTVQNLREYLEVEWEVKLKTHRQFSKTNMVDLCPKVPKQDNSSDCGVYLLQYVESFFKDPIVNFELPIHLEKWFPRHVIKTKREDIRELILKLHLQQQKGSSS

[10] = target: T4, Sentrin-specific protease 8 (Homo sapiens, UniProt Q96LD8); type: functional;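 further: luminescence read-out of SENP8 inhibition, dose-response confirmation following an ultra-high-throughput screen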
T4 sequence (Q96LD8 whole entry): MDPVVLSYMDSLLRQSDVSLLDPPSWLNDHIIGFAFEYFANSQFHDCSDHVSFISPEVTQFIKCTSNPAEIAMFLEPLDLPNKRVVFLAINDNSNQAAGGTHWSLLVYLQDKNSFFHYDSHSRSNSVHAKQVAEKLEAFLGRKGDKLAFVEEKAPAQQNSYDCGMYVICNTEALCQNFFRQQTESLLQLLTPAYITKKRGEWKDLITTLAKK

Caspase-3 = target: T5, Caspase-3 (Homo sapiens, UniProt P42574); type: functional;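 further: Dose-response selectivity test against caspase-3 for candidate inhibitors of sentrin-specific proteases (SENPs)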
T5 sequence (P42574 whole entry): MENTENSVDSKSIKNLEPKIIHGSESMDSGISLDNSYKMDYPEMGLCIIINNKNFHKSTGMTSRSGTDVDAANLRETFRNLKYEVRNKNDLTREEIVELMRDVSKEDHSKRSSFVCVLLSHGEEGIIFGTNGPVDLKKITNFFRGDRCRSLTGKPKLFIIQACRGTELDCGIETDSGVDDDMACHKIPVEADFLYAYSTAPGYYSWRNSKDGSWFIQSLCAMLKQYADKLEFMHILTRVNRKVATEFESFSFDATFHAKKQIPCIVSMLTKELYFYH

INS1 = assay: INS-1E survival protection against cytokine death – cell-based, luminescence, retest, dose response (AID 449756); type: functional; conditions: Rattus norvegicus;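 further: cell death triggered by IL-1 beta plus TNF-alpha plus IFN-gamma mixture; protective hits raise ATP signal compared with cytokine alone wells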
[11] = general cell-killing toxicity readout – plate reader, dry powder samples, cytotoxicity control for PAX8 inhibitor project, dose response (AID 743021); type: functional, cell-based
[12] = Luminescence Cell-Based Dose Retest to Confirm Inhibitors of Cancer Stem Cells. [Related pubchem assays (depositor defined):AID2717, AID2721]; type: functional; conditions: Homo sapiens
Paired box protein Pax-8 = Paired box protein Pax-8 (Homo sapiens, UniProt Q06710); assay: PAX8 transcriptional activity inhibition in RMG-I – RMG-I cells, luciferase, cherry-pick, dose response (AID 687027); type: functional, cell-based;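 further: luciferase reporter driven by Pax8 target thyroperoxidase promoter measured by SteadyGlo luminescence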
Paired box protein Pax-8, sequence (Q06710 whole entry): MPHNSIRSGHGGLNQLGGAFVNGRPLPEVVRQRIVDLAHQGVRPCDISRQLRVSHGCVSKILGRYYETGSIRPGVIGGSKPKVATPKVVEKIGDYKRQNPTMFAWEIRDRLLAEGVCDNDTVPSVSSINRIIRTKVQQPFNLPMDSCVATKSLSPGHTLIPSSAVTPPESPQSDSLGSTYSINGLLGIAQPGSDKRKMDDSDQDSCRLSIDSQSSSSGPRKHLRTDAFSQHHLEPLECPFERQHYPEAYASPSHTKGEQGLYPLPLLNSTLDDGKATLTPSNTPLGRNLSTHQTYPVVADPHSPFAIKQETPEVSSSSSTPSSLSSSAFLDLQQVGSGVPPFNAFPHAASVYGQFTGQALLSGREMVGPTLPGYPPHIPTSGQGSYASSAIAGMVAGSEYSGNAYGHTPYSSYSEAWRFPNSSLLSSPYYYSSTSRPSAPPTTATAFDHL

Luciferin 4-monooxygenase, sequence (P08659 whole entry): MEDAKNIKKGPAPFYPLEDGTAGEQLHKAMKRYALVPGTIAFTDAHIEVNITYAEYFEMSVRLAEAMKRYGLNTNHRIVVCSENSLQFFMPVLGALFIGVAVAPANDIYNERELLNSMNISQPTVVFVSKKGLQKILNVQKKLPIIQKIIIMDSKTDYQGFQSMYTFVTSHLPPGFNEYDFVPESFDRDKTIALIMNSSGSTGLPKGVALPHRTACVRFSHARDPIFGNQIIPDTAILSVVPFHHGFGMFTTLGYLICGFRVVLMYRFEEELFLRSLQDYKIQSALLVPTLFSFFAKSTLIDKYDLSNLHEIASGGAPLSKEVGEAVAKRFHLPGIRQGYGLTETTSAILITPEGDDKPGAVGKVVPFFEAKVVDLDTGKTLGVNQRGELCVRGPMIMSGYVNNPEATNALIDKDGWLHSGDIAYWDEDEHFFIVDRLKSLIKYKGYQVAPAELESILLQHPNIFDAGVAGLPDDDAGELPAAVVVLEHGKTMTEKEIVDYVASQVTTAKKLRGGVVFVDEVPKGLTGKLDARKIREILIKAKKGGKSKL

In the case of `Cc1ccnc(Nc2nc3ccccc3o2)n1`, the EC50 (HT-1080) is reported as > 50 µM (not active), the EC50 [1] is reported as 3.04 µM (active) and the IC50 [2] is reported as > 50 µM (not active). The AC50 [3] was 4.77 µM (active), the AC50 [4] was 30.1 µM (active) and the AC50 [5] was 5.98 µM (active). For the same compound, the AC50 [6] was 46.8 µM (active) and the AC50 [7] was 43.5 µM (active).

In the case of `CCOc1cccc(C(=O)Nc2ccc3ccccc3c2)c1`, the IC50 [8] is reported as 2.37 µM (active), the IC50 [9] is reported as 1.46 µM (active) and the AC50 [3] is reported as 5.43 µM (active). For the same compound, the AC50 [4] was > 52 µM (inactive), the AC50 [5] was 5.95 µM (active) and the AC50 [6] was > 52 µM (inactive). For the same compound, the AC50 [7] was > 52 µM (inactive), the IC50 [10] was 4.95 µM (active) and the IC50 (Caspase-3) was 3.54 µM (active).

For `O=C(C[C@@H]1C/C=C/CC[C@H](Cc2ccc(F)cc2)C(=O)OC[C@@H](Cc2ccccc2)NC1=O)N[C@H](CO)Cc1ccccc1`, the AC50 (INS1) was 5 µM (active), the AC50 [11] was 33.4 µM (active) and the AC50 [12] was 0.956 µM (active). The AC50 (Paired box protein Pax-8) was 15 µM (active).
